Measurements taken from the Kinase Knowledgebase extract (Sharma et al. 2016).

Target: CDK2 (human) (UniProt P24941)
Assay: Enzyme Assay

For `COCC(C)(C)c1cc(Nc2cc(C)[nH]n2)nc(Sc2ccc3c(=O)[nH][nH]c3c2)n1`, which Ki is on record?
The Ki was < 1000 nM.

Which Ki does the source give for `O=c1[nH][nH]c2cc(Nc3nc(Nc4cc(C5CC5)[nH]n4)c4cc(N5CCOCC5)ccc4n3)ccc12` here?
Its Ki is < 1000 nM.

How did the Ki turn out when `O=c1[nH][nH]c2cc(CC(CCNc3cc(C4CC4)[nH]n3)Cc3ccccc3)ccc12` (configuration not stated) was run?
Its Ki is < 1000 nM.

With `Cc1cc(Nc2nc(COc3ccc4[nH][nH]c(=O)c4c3)nc3c2CCCC3)n[nH]1` as the molecule, how does the Ki read?
The Ki was < 1000 nM.

With `Cc1cc(Nc2nc(Oc3ccc4c(=O)[nH][nH]c4c3)cc3ccccc23)n[nH]1` as the molecule, how does the Ki read?
The Ki was < 1000 nM.

For `O=c1[nH][nH]c2ccc(-c3nc(Nc4n[nH]c5cc(=O)n(-c6ccccc6)nc45)c4ccccc4n3)c(C(F)(F)F)c12`, which Ki is on record?
Its Ki is < 1000 nM.

For `O=c1[nH][nH]c2ccc(-c3nc4c(c(Nc5n[nH]c6ccccc56)n3)N(Cc3ccccc3)CCC4)c(C(F)(F)F)c12`, which Ki is on record?
Its Ki is < 1000 nM.

With `Cc1cc(Nc2cc(C(=O)N3CCN(C)CC3)nc(Sc3ccc4c(=O)[nH][nH]c4c3)n2)n[nH]1` as the molecule, how does the Ki read?
The Ki was < 1000 nM.

How did the Ki turn out when `Cc1cc(Nc2cc(-c3cc4c(=O)[nH][nH]c4cc3C(F)(F)F)nc3cnccc23)n[nH]1` was run?
The Ki was < 1000 nM.

With `Cn1cnc(NC(=O)CC(=O)Cc2ccc3c(=O)[nH][nH]c3c2)c1` as the molecule, how does the Ki read?
Its Ki is < 1000 nM.

How did the Ki turn out when `O=c1[nH][nH]c2ccc(-c3cc(Nc4n[nH]c5cccnc45)c4ccccc4n3)cc12` was run?
Its Ki is < 1000 nM.

`O=c1[nH][nH]c2ccc(-c3nc(Nc4n[nH]c5ccccc45)cc(-c4ccccc4)n3)c(C(F)(F)F)c12` was tested. Which Ki did it give?
Its Ki is < 1000 nM.

`COc1cccc2c(Nc3cc(C)[nH]n3)nc(Sc3ccc4c(=O)[nH][nH]c4c3)nc12` was tested. Which Ki did it give?
Its Ki is < 1000 nM.

With `Cc1cc(-c2cc3c(=O)[nH][nH]c3cc2Cl)nc(Nc2n[nH]c3ccccc23)c1C` as the molecule, how does the Ki read?
The Ki was < 1000 nM.

Which Ki does the source give for `Cn1cnc(NCCC(=O)Oc2ccc3c(=O)[nH][nH]c3c2)c1` here?
The Ki was < 1000 nM.

How did the Ki turn out when `CS(=O)(=O)N1CCCCC1c1cc(Nc2n[nH]c3ccccc23)nc(-c2ccc3[nH][nH]c(=O)c3c2C(F)(F)F)n1` (configuration not stated) was run?
The Ki was < 1000 nM.

For `O=c1[nH][nH]c2cc(SCC3CCCC3Nc3ccccn3)ccc12` (configuration not stated), which Ki is on record?
The Ki was < 1000 nM.

Which Ki does the source give for `Cc1cc(Nc2cc(-c3ccccc3)nc(Sc3ccc4c(=O)[nH][nH]c4c3)n2)n[nH]1` here?
Its Ki is < 1000 nM.

`O=c1[nH][nH]c2cc(Nc3cccc(Nc4ccccn4)c3)ccc12` was tested. Which Ki did it give?
The Ki was < 1000 nM.

For `O=c1[nH][nH]c2cc(Nc3cc(Nc4n[nH]c5ccccc45)c4ccccc4n3)ccc12`, which Ki is on record?
The Ki was < 1000 nM.

For `CNc1cnc(-c2ccc3[nH][nH]c(=O)c3c2C(F)(F)F)nc1Nc1n[nH]c2ccccc12`, which Ki is on record?
Its Ki is < 1000 nM.

With `O=c1[nH][nH]c2cc(OC3CCCC(Nc4ccccn4)C3)ccc12` (configuration not stated) as the molecule, how does the Ki read?
The Ki was < 1000 nM.

With `O=C(CC(=O)Oc1ccc2c(=O)[nH][nH]c2c1)Nc1nccnn1` as the molecule, how does the Ki read?
Its Ki is < 1000 nM.

Which Ki does the source give for `O=c1[nH][nH]c2cc(CCC3CCCC3Nc3cc(C4CC4)[nH]n3)ccc12` (configuration not stated) here?
The Ki was < 1000 nM.

For `O=c1[nH][nH]c2cc(OC(CCNc3ccccn3)Cc3ccccc3)ccc12` (configuration not stated), which Ki is on record?
Its Ki is < 1000 nM.

With `O=c1[nH][nH]c2cc(Nc3nc(Nc4n[nH]c5cccc(F)c45)c4ccccc4n3)ccc12` as the molecule, how does the Ki read?
The Ki was < 1000 nM.

With `Cc1cc(Nc2cc(-c3ccccc3)[nH]n2)nc(Nc2ccc3c(=O)[nH][nH]c3c2)n1` as the molecule, how does the Ki read?
Its Ki is < 1000 nM.

With `Cc1cc(Nc2cc(-c3ccco3)[nH]n2)nc(COc2ccc3c(=O)[nH][nH]c3c2)n1` as the molecule, how does the Ki read?
The Ki was < 1000 nM.

`Cc1cc(Nc2cc(N3CCCCC3)nc(SCc3ccc4[nH][nH]c(=O)c4c3)n2)n[nH]1` was tested. Which Ki did it give?
Its Ki is < 1000 nM.

With `O=c1[nH][nH]c2cc(OCC3CCCC3Nc3nccnn3)ccc12` (configuration not stated) as the molecule, how does the Ki read?
The Ki was < 1000 nM.

How did the Ki turn out when `CC(=O)N1CCC(c2cc(Nc3n[nH]c4ccccc34)nc(-c3ccc4[nH][nH]c(=O)c4c3C(F)(F)F)n2)CC1` was run?
The Ki was < 1000 nM.

With `CN1CCN(C(=O)c2cc(Nc3nc(-c4ccc5[nH][nH]c(=O)c5c4)nc4ccccc34)n[nH]2)CC1` as the molecule, how does the Ki read?
Its Ki is < 1000 nM.

How did the Ki turn out when `Cc1cc(Nc2nc(Nc3ccc4c(=O)[nH][nH]c4c3)nc3c2CCCCC3)n[nH]1` was run?
The Ki was < 1000 nM.

Which Ki does the source give for `Cc1cc(Nc2cc(Oc3ccc4c(=O)[nH][nH]c4c3)nc3ccccc23)n[nH]1` here?
Its Ki is < 1000 nM.

How did the Ki turn out when `CCc1cc(Nc2nc(Nc3ccc4c(=O)[nH][nH]c4c3)nc3ccc(-c4ccccc4)cc23)n[nH]1` was run?
Its Ki is < 1000 nM.

For `O=c1[nH][nH]c2cc(Nc3cc4ccccc4c(Nc4n[nH]c5ccccc45)n3)ccc12`, which Ki is on record?
The Ki was < 1000 nM.

How did the Ki turn out when `Cc1cnc(NC2CCC(Oc3ccc4c(=O)[nH][nH]c4c3)C2)s1` (configuration not stated) was run?
The Ki was < 1000 nM.

`Cc1cc(Nc2nc(Nc3ccc4c(=O)[nH][nH]c4c3)nc3c2CCN(Cc2ccccc2)C3)n[nH]1` was tested. Which Ki did it give?
Its Ki is < 1000 nM.

With `O=c1[nH][nH]c2cc(Oc3cc4ccccc4c(Nc4cc(C5CC5)[nH]n4)n3)ccc12` as the molecule, how does the Ki read?
The Ki was < 1000 nM.

Which Ki does the source give for `Cc1cc(Nc2nc(-c3ccc4[nH][nH]c(=O)c4c3)nc3cc(-n4cccc4)ccc23)n[nH]1` here?
Its Ki is < 1000 nM.

With `Cc1cnc(NCCCNc2ccc3c(=O)[nH][nH]c3c2)s1` as the molecule, how does the Ki read?
The Ki was < 1000 nM.

Which Ki does the source give for `Cc1cc(Nc2cc(-c3ccccc3)nc(Nc3ccc4c(=O)[nH][nH]c4c3)n2)n[nH]1` here?
The Ki was < 1000 nM.

With `O=c1[nH][nH]c2cc(Nc3nc(Nc4cc(C5CC5)[nH]n4)nc(-c4ccccc4)n3)ccc12` as the molecule, how does the Ki read?
The Ki was < 1000 nM.

For `Nc1cncc(-c2nc(Nc3n[nH]c4ccccc34)nc(-c3cc4c(=O)[nH][nH]c4cc3C(F)(F)F)n2)c1`, which Ki is on record?
Its Ki is < 1000 nM.

For `O=c1[nH][nH]c2ccc(-c3nc(Nc4n[nH]c5ccccc45)c4ccccc4n3)c([N+](=O)[O-])c12`, which Ki is on record?
The Ki was < 1000 nM.

`Cc1cc(Nc2nc(Nc3ccc4c(=O)[nH][nH]c4c3)nc3c2CN(Cc2ccccc2)CC3)n[nH]1` was tested. Which Ki did it give?
The Ki was < 1000 nM.

How did the Ki turn out when `CN1CCC(OCc2cc(Nc3cc(C4CC4)[nH]n3)nc(Sc3ccc4c(=O)[nH][nH]c4c3)n2)CC1` was run?
The Ki was < 1000 nM.

`Cc1cnc(NC2CCC(Nc3ccc4c(=O)[nH][nH]c4c3)C2)s1` (configuration not stated) was tested. Which Ki did it give?
Its Ki is < 1000 nM.

With `CCc1cc(Nc2cc(C)[nH]n2)nc(-c2ccc3[nH][nH]c(=O)c3c2)n1` as the molecule, how does the Ki read?
The Ki was < 1000 nM.

`COc1nc(Nc2ccc3c(=O)[nH][nH]c3c2)nc(Nc2cc(C3CC3)[nH]n2)n1` was tested. Which Ki did it give?
The Ki was < 1000 nM.

For `O=C(CCOc1ccc2c(=O)[nH][nH]c2c1)Nc1nccnn1`, which Ki is on record?
The Ki was < 1000 nM.

With `O=C(CCCc1ccc2c(=O)[nH][nH]c2c1)Nc1ccccn1` as the molecule, how does the Ki read?
Its Ki is < 1000 nM.

Which Ki does the source give for `CC(C)c1cc(Nc2nc(Nc3ccc4c(=O)[nH][nH]c4c3)nc3ccc(-c4ccccc4)cc23)n[nH]1` here?
Its Ki is < 1000 nM.

For `O=c1[nH][nH]c2cc(Sc3cc(Nc4cc(C5CC5)[nH]n4)ccn3)ccc12`, which Ki is on record?
The Ki was < 1000 nM.

With `O=C(CC(=O)Oc1ccc2c(=O)[nH][nH]c2c1)Nc1ccccn1` as the molecule, how does the Ki read?
Its Ki is < 1000 nM.

`Cc1nc(-c2ccc3[nH][nH]c(=O)c3c2C(F)(F)F)nc(Nc2n[nH]c(C(C)C)n2)c1C` was tested. Which Ki did it give?
The Ki was < 1000 nM.

Which Ki does the source give for `O=c1[nH][nH]c2cc(CSc3cc(Nc4n[nH]c5ccccc45)ccn3)ccc12` here?
Its Ki is < 1000 nM.

For `O=c1[nH][nH]c2cc(Sc3nc(Nc4cc(C5CC5)[nH]n4)c4ccccc4n3)ccc12`, which Ki is on record?
The Ki was < 1000 nM.

How did the Ki turn out when `O=c1[nH][nH]c2ccc(-c3nc(Nc4n[nH]c5cccc(Cl)c45)c4ccccc4n3)c(C(F)(F)F)c12` was run?
Its Ki is < 1000 nM.

Which Ki does the source give for `Cn1cnc(NC2COCC(Nc3ccc4c(=O)[nH][nH]c4c3)C2)c1` (configuration not stated) here?
The Ki was < 1000 nM.

Which Ki does the source give for `Cn1cnc(NC2CCCC2COc2ccc3c(=O)[nH][nH]c3c2)c1` (configuration not stated) here?
Its Ki is < 1000 nM.

Which Ki does the source give for `O=c1[nH][nH]c2cc(NCCCNc3nccnn3)ccc12` here?
Its Ki is < 1000 nM.

For `CSc1nc(Nc2ccc3c(=O)[nH][nH]c3c2)cc(Nc2cc(C3CC3)[nH]n2)n1`, which Ki is on record?
The Ki was < 1000 nM.

`O=C1CCc2c(nc(-c3ccc4[nH][nH]c(=O)c4c3)nc2Nc2n[nH]c3ccccc23)C1` was tested. Which Ki did it give?
Its Ki is < 1000 nM.

With `Cc1cnc(NC2CCC(c3ccc4[nH][nH]c(=O)c4c3)C2)s1` (configuration not stated) as the molecule, how does the Ki read?
The Ki was < 1000 nM.

With `N#Cc1cc(Nc2n[nH]c3ccccc23)nc(-c2ccc3[nH][nH]c(=O)c3c2C(F)(F)F)n1` as the molecule, how does the Ki read?
The Ki was < 1000 nM.

`O=c1[nH][nH]c2cc(C(F)(F)F)c(-c3nc4c(c(Nc5n[nH]c6ccc(F)cc56)n3)OCCC4)cc12` was tested. Which Ki did it give?
Its Ki is < 1000 nM.
